≈ marks a conversion by molar mass, not a printed value.
Legend:
B16 [1] = experiment: Antitumor activity against mouse B16 cells xenografted in BDF1 mouse at 0.05 mg/kg relative to control; assay type: functional
Candida albicans [2] = experiment: Antifungal activity against Candida albicans A15049 by 2-fold tube dilution method; assay type: functional
L1210 [3] = experiment: Antitumor activity against mouse L1210 cells xenografted in BDF1 mouse assessed as change in tumor average weight at 3.2 mg/kg, ip; assay type: functional; conditions: route intraperitoneal
Proteus vulgaris = experiment: Antibacterial activity against Proteus vulgaris A21559 by 2-fold tube dilution method; assay type: functional
Klebsiella pneumoniae = experiment: Antibacterial activity against Klebsiella pneumoniae A15130 by 2-fold tube dilution method; assay type: functional
B16 [4] = experiment: Antitumor activity against mouse B16 cells xenografted in BDF1 mouse assessed as median survival time at 0.1 mg/kg; assay type: functional
Streptococcus pyogenes = experiment: Antibacterial activity against Streptococcus pyogenes A-9604 by 2-fold tube dilution method; assay type: functional
B16 [5] = experiment: Antitumor activity against mouse B16 cells xenografted in BDF1 mouse assessed as median survival time at 0.8 mg/kg; assay type: functional
L1210 [6] = experiment: Antitumor activity against mouse L1210 cells xenografted in BDF1 mouse assessed as median survival time at 1.6 mg/kg, ip; assay type: functional; conditions: route intraperitoneal
Mus musculus [7] = experiment: Toxicity in BDF1 mouse xenografted with mouse B16 cells assessed as survival at 0.2 mg/kg after 5 days; assay type: organism-based; parameters: dose 0.2 mg/kg
B16 [8] = experiment: Antitumor activity against mouse B16 cells xenografted in BDF1 mouse at 0.1 mg/kg relative to control; assay type: functional
B16 [9] = experiment: Antitumor activity against mouse B16 cells xenografted in BDF1 mouse at 1.6 mg/kg relative to control; assay type: functional
Mus musculus [10] = experiment: Toxicity in BDF1 mouse xenografted with mouse L1210 cells assessed as survival at 0.4 mg/kg, ip after 5 days; assay type: organism-based; parameters: dose 0.4 mg/kg, route intraperitoneal; conditions: in vivo, 120 h
B16 [11] = experiment: Antitumor activity against mouse B16 cells xenografted in BDF1 mouse at 0.4 mg/kg relative to control; assay type: functional
Escherichia coli [12] = experiment: Antibacterial activity against Escherichia coli A15119 by 2-fold tube dilution method; assay type: functional
B16 [13] = experiment: Antitumor activity against mouse B16 cells xenografted in BDF1 mouse assessed as median survival time at 0.4 mg/kg; assay type: functional
Serratia marcescens = experiment: Antibacterial activity against Serratia marcescens A20019 by 2-fold tube dilution method; assay type: functional
Mus musculus [14] = experiment: Toxicity in BDF1 mouse xenografted with mouse B16 cells assessed as survival at 0.05 mg/kg after 5 days; assay type: organism-based; parameters: dose 0.05 mg/kg
L1210 [15] = experiment: Antitumor activity against mouse L1210 cells xenografted in BDF1 mouse at 0.4 mg/kg, ip relative to control; assay type: functional; conditions: route intraperitoneal
L1210 [16] = experiment: Antitumor activity against mouse L1210 cells xenografted in BDF1 mouse assessed as median survival time at 0.4 mg/kg, ip; assay type: functional; conditions: route intraperitoneal
L1210 [17] = experiment: Antitumor activity against mouse L1210 cells xenografted in BDF1 mouse at 0.8 mg/kg, ip relative to control; assay type: functional; conditions: route intraperitoneal
B16 [18] = experiment: Antitumor activity against mouse B16 cells xenografted in BDF1 mouse assessed as change in tumor average weight at 0.4 mg/kg; assay type: functional
Candida albicans [19] = experiment: Antifungal activity against Candida albicans A-9540 by 2-fold tube dilution method; assay type: functional
Enterococcus faecalis = experiment: Antibacterial activity against Streptococcus faecalis A20688 by 2-fold tube dilution method; assay type: functional
Mus musculus [20] = experiment: Toxicity in BDF1 mouse xenografted with mouse B16 cells assessed as survival at 0.1 mg/kg after 5 days; assay type: organism-based; parameters: dose 0.1 mg/kg
Mus musculus [21] = experiment: Toxicity in BDF1 mouse xenografted with mouse L1210 cells assessed as survival at 0.8 mg/kg, ip after 5 days; assay type: organism-based; parameters: dose 0.8 mg/kg, route intraperitoneal; conditions: in vivo, 120 h
Mus musculus [22] = experiment: Toxicity in BDF1 mouse xenografted with mouse B16 cells assessed as survival at 0.025 mg/kg after 5 days; assay type: organism-based; parameters: dose 0.025 mg/kg
B16 [23] = experiment: Antitumor activity against mouse B16 cells xenografted in BDF1 mouse assessed as median survival time at 0.025 mg/kg; assay type: functional
B16 [24] = experiment: Antitumor activity against mouse B16 cells xenografted in BDF1 mouse assessed as change in tumor average weight at 0.2 mg/kg; assay type: functional
Staphylococcus aureus = experiment: Antibacterial activity against Staphylococcus aureus A-9497 by 2-fold tube dilution method; assay type: functional
B16 [25] = experiment: Antitumor activity against mouse B16 cells xenografted in BDF1 mouse assessed as change in tumor average weight at 0.05 mg/kg; assay type: functional
Mus musculus [26] = experiment: Toxicity in BDF1 mouse xenografted with mouse L1210 cells assessed as survival at 6.4 mg/kg, ip after 5 days; assay type: organism-based; parameters: dose 6.4 mg/kg, route intraperitoneal; conditions: in vivo, 120 h
Mus musculus [27] = experiment: Toxicity in BDF1 mouse xenografted with mouse B16 cells assessed as survival at 1.6 mg/kg after 5 days; assay type: organism-based; parameters: dose 1.6 mg/kg
L1210 [28] = experiment: Antitumor activity against mouse L1210 cells xenografted in BDF1 mouse assessed as median survival time at 0.8 mg/kg, ip; assay type: functional; conditions: route intraperitoneal
B16 [29] = experiment: Antitumor activity against mouse B16 cells xenografted in BDF1 mouse at 0.2 mg/kg relative to control; assay type: functional
L1210 [30] = experiment: Antitumor activity against mouse L1210 cells xenografted in BDF1 mouse assessed as median survival time at 3.2 mg/kg, ip; assay type: functional; conditions: route intraperitoneal
B16 [31] = experiment: Antitumor activity against mouse B16 cells xenografted in BDF1 mouse assessed as change in tumor average weight at 0.025 mg/kg; assay type: functional
Pseudomonas aeruginosa = experiment: Antibacterial activity against Pseudomonas aeruginosa A-9843A by 2-fold tube dilution method; assay type: functional
L1210 [32] = experiment: Antitumor activity against mouse L1210 cells xenografted in BDF1 mouse assessed as change in tumor average weight at 0.4 mg/kg, ip; assay type: functional; conditions: route intraperitoneal
Staphylococcus = experiment: Antibacterial activity against penicillin resistant Staphylococcus A-9606 by 2-fold tube dilution method; assay type: functional
Streptococcus pneumoniae = experiment: Antibacterial activity against Streptococcus pneumoniae A-9585 by 2-fold tube dilution method; assay type: functional
B16 [33] = experiment: Antitumor activity against mouse B16 cells xenografted in BDF1 mouse assessed as change in tumor average weight at 3.2 mg/kg; assay type: functional
B16 [34] = experiment: Antitumor activity against mouse B16 cells xenografted in BDF1 mouse assessed as change in tumor average weight at 0.1 mg/kg; assay type: functional
[35] = system: Trichophyton mentagrophytes; experiment: Antifungal activity against Trichophyton mentagrophytes A-9870 by 2-fold tube dilution method; assay type: functional
B16 [36] = experiment: Antitumor activity against mouse B16 cells xenografted in BDF1 mouse at 0.025 mg/kg relative to control; assay type: functional
Mus musculus [37] = experiment: Toxicity in BDF1 mouse xenografted with mouse B16 cells assessed as survival at 0.4 mg/kg after 5 days; assay type: organism-based; parameters: dose 0.4 mg/kg
Enterobacter cloacae = experiment: Antibacterial activity against Enterobacter cloacae A-9659 by 2-fold tube dilution method; assay type: functional
Candida tropicalis = experiment: Antifungal activity against Candida tropicalis A15051 by 2-fold tube dilution method; assay type: functional
B16 [38] = experiment: Antitumor activity against mouse B16 cells xenografted in BDF1 mouse assessed as median survival time at 3.2 mg/kg; assay type: functional
B16 [39] = experiment: Antitumor activity against mouse B16 cells xenografted in BDF1 mouse assessed as median survival time at 0.2 mg/kg; assay type: functional
Escherichia coli [40] = experiment: Antibacterial activity against Escherichia coli A20341-1 by 2-fold tube dilution method; assay type: functional
Mus musculus [41] = experiment: Toxicity in BDF1 mouse xenografted with mouse L1210 cells assessed as survival at 12.8 mg/kg, ip after 5 days; assay type: organism-based; parameters: dose 12.8 mg/kg, route intraperitoneal; conditions: in vivo, 120 h

Compound: CC[C@@]1(O)C[C@H](O[C@H]2C[C@H](N(C)C)[C@H](O[C@H]3C[C@H](O)[C@H](O[C@@H]4O[C@@H](C)C(=O)C=C4N)[C@@H](C)O3)[C@@H](C)O2)c2c(cc3c(c2O)C(=O)c2c(O)ccc(O)c2C3=O)[C@H]1C(=O)OC [RUDOLPHOMYCIN]
- T/C (B16 [1]): 110%
- MIC (Candida albicans [2]): > 16 µg/mL
- Activity (L1210 [3]): -2.2 g
- MIC (Proteus vulgaris): > 125 µg/mL
- MIC (Klebsiella pneumoniae): > 125 µg/mL
- Activity (B16 [4]): 27.5 days
- MIC (Streptococcus pyogenes): 0.25 µg/mL (≈ 0.297 µM)
- Activity (B16 [5]): 29 days
- Activity (L1210 [6]): 10 days
- AC50 (Mus musculus [7]): Non-toxic
- T/C (B16 [8]): 138%
- T/C (B16 [9]): 160%
- Activity (Mus musculus [10]): Non-toxic
- T/C (B16 [11]): 133%
- MIC (Escherichia coli [12]): > 125 µg/mL
- Activity (B16 [13]): 26.5 days
- MIC (Serratia marcescens): > 125 µg/mL
- AC50 (Mus musculus [14]): Non-toxic
- T/C (L1210 [15]): 107%
- Activity (L1210 [16]): 8 days
- T/C (L1210 [17]): 120%
- Activity (B16 [18]): -0.8 g
- MIC (Candida albicans [19]): > 16 µg/mL
- MIC (Enterococcus faecalis): 1 µg/mL (≈ 1.19 µM)
- AC50 (Mus musculus [20]): Non-toxic
- Activity (Mus musculus [21]): Non-toxic
- AC50 (Mus musculus [22]): Non-toxic
- Activity (B16 [23]): 22.5 days
- Activity (B16 [24]): -1 g
- MIC (Staphylococcus aureus): 1 µg/mL (≈ 1.19 µM)
- Activity (B16 [25]): -0.8 g
- Activity (Mus musculus [26]): Toxic
- AC50 (Mus musculus [27]): Non-toxic
- Activity (L1210 [28]): 9 days
- T/C (B16 [29]): 130%
- Activity (L1210 [30]): 8 days
- Activity (B16 [31]): -0.9 g
- MIC (Pseudomonas aeruginosa): > 125 µg/mL
- Activity (L1210 [32]): 0.9 g
- MIC (Staphylococcus): 32 µg/mL (≈ 38.1 µM)
- MIC (Streptococcus pneumoniae): 0.06 µg/mL (≈ 0.0714 µM)
- Activity (B16 [33]): -0.3 g
- Activity (B16 [34]): -0.4 g
- MIC [35]: > 16 µg/mL
- T/C (B16 [36]): 113%
- AC50 (Mus musculus [37]): Non-toxic
- MIC (Enterobacter cloacae): > 125 µg/mL
- MIC (Candida tropicalis): > 16 µg/mL
- Activity (B16 [38]): 23 days
- Activity (B16 [39]): 26 days
- MIC (Escherichia coli [40]): > 125 µg/mL
- Activity (Mus musculus [41]): Toxic
